Measured values: US6545049B1, “Dimer-selective RXR modulators and methods for their use” (Ligand Pharmaceuticals Incorporated, priority 1995, dated 2003)

Legend:
RXRα:RXRα homodimer = biological target: T1, RXRα:RXRα homodimer (Homo sapiens, UniProt P19793); experiment: Gal4-receptor chimera transactivation assay, RXR homodimer
T1 sequence (P19793 227-458 limits assumed): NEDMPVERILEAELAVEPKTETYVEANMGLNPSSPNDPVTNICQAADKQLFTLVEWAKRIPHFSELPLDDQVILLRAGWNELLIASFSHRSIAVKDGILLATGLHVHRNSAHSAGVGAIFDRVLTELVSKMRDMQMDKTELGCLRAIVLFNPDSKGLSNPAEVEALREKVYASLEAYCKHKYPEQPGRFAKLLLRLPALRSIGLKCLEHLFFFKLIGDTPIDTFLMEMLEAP
Description: (§1) Briefly, CV-1 cells were transfected in 12 well multi-well plates using 0.1 μg of each receptor and 0.5 μg of reporter per well. Each well was also transfected with 0.5 μg of the β-Gal expression plasmid as an internal control for transfection efficiency. Total plasmid per well was 2 μg made up using the plasmid pGEM. […] Receptor ligand binding domains (LBDs) were fused in-frame downstream to the Gal4 cDNA to produce Gal4-receptor fusion proteins. To express only the receptor LBDs, the LBD was cloned directly downstream to the CMV promoter.
Cells were then washed 2X with PBS and lysed using Promega lysis buffer and assayed for luciferase activity and β-galactosidase activity. All results were normalized against β-Gal. Each set was done in triplicates and each experiment was carried out at least 3 separate times with similar results.

RXRα:PPARα heterodimer = biological target: T2, RXRα:PPARα heterodimer (Homo sapiens, UniProt P19793); experiment: RXR heterodimer co-transfection assay (RXRα and PPARα, PPARα response element reporter)
T2 sequence (P19793 1-462): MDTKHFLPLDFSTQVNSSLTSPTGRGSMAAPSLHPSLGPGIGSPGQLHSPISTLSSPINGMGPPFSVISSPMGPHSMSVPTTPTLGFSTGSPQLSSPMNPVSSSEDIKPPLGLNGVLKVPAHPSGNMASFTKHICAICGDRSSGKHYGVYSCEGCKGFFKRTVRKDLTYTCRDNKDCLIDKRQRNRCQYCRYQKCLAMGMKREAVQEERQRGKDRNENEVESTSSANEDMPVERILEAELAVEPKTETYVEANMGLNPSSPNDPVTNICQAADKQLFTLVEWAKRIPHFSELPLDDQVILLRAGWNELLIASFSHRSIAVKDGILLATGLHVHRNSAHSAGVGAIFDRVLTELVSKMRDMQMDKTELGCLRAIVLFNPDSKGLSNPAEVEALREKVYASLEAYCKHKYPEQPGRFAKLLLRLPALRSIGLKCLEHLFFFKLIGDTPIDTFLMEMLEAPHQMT
T2 sequence (Q07869 1-468 partner): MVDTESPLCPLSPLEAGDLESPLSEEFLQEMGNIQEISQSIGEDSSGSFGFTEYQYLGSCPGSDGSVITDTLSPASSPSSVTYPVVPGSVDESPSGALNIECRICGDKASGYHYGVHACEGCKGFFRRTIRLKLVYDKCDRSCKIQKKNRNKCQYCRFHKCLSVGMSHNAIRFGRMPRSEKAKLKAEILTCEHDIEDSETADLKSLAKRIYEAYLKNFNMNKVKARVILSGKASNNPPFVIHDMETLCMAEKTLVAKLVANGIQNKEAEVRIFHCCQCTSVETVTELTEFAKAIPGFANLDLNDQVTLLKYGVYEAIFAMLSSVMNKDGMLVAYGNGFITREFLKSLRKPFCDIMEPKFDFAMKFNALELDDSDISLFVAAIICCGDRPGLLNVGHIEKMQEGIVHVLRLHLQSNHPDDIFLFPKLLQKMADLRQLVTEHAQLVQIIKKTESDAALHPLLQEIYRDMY

RXR:RXR homodimer = biological target: T3, RXR:RXR homodimer (Homo sapiens, UniProt P19793); experiment: RXR homodimer co-transfection assay (FIG. 1); conditions: in the presence of known RXR activators (LGD1069, LG100268, 9-cis retinoic acid)
T3 sequence (P19793 1-462): T2 sequence (P19793 1-462)

RXRγ = biological target: T4, RXRγ (Mus musculus, UniProt P28705); experiment: RXR binding, RXRγ; conditions: -v- tritiated LGD1069 and tritiated 9-cis retinoic acid
T4 sequence (P28705 1-463): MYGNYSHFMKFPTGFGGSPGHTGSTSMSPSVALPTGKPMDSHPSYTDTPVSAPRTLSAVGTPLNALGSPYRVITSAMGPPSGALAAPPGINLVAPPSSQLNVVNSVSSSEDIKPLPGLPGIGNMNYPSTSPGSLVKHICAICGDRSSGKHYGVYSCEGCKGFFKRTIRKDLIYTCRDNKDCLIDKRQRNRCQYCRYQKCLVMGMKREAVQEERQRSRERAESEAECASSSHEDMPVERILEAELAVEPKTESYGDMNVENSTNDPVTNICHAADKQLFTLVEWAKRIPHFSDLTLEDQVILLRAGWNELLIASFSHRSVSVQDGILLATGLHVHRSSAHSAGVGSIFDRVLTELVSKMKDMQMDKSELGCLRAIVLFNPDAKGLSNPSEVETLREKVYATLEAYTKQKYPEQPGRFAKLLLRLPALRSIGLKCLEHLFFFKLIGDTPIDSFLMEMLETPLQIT

RXRα:RARα heterodimer = biological target: T5, RXRα:RARα heterodimer (Homo sapiens, UniProt P19793); experiment: Gal4-receptor chimera transactivation assay, RXRα:RARα heterodimer
T5 sequence (P19793 227-458 limits assumed): T1 sequence (P19793 227-458 limits assumed)
T5 sequence (P10276 183-417 partner limits assumed): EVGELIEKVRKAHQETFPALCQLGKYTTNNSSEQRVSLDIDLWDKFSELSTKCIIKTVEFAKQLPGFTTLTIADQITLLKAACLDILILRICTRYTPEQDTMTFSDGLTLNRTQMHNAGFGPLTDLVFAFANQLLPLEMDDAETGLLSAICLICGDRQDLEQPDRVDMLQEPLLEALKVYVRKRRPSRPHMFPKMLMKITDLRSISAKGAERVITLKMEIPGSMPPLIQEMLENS
Description: as §1
Cells were then washed 2X with PBS and lysed using Promega lysis buffer and assayed for luciferase activity and β-galactosidase activity. All results were normalized against β-Gal.
The above assay system was used because reporter activity is dependent upon the binding of the Gal4 DNA binding domain to copies of its binding site, the UAS (upstream activation sequence), located upstream of the luciferase cDNA. […] Since endogenous receptors lack the Gal4 DNA binding domain, no background activation of the reporter is observed, however, Gal4-receptor LBD fusion proteins can bind the Gal4 site and be activated in a receptor ligand dependent manner. This system, therefore, completely eliminates the low background activity of endogenous receptors in CV-1 cells making it possible to test compound activity on exogenously added receptors.

RXRα = biological target: T6, RXRα (Homo sapiens, UniProt P19793); experiment: RXR binding, RXRα; conditions: -v- tritiated LGD1069 and tritiated 9-cis retinoic acid
T6 sequence (P19793 1-462): T2 sequence (P19793 1-462)

RXRβ = biological target: T7, RXRβ (Mus musculus, UniProt P28704); experiment: RXR binding, RXRβ; conditions: -v- tritiated LGD1069 and tritiated 9-cis retinoic acid
T7 sequence (P28704 1-520): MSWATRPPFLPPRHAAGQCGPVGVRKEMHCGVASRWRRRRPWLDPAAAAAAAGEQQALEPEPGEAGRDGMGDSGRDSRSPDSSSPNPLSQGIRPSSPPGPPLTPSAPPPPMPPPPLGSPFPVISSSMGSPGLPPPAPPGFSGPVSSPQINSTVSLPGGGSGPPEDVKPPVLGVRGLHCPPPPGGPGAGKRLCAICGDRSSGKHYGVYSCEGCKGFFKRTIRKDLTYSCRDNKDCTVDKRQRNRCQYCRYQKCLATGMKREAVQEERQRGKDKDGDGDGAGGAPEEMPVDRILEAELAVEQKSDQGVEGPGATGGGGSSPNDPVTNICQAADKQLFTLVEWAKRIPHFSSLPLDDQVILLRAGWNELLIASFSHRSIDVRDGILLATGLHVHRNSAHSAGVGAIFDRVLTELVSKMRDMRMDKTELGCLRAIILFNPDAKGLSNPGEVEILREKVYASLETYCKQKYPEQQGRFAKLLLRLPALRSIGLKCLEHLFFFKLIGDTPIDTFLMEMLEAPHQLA

Fold activation (RXRα:RXRα homodimer; CV-1 cells, 100 nM LG100268, LGD1069, 500 nM Compounds 117, 122, 130, 1 mM Compound 131, n.e. = no effect): n.e.
agonist activity on RXR homodimers in the GAL4 transfection assay (in words) (RXRα:RXRα homodimer; compound alone): inactive
antagonist activity on RXR homodimers in the GAL4 transfection assay (in words) (RXRα:RXRα homodimer; in combination with either LGD1069 or LG100268): moderate antagonist
Fold Repression (RXRα:RXRα homodimer; in combination with either LGD1069 or LG100268, 500 nM Compounds 117, 122, 130, 1 mM Compound 131): 1.5 fold
EC50 (RXRα:PPARα heterodimer): 900 nM
Fold activation (RXRα:PPARα heterodimer; normalized luciferase values at 10−5M divided by values with vehicle): 9 fold
antagonism of RXR homodimer transactivation (in words) (RXR:RXR homodimer): function as antagonists
Kd (RXRγ): 17 nM
Fold Repression (RXRα:RARα heterodimer; CV-1 cells, 500 nM Compound 117, in combination with TTNPB): 1.4 fold
effect on RXRα:RARα heterodimer in combination with TTNPB (in words) (RXRα:RARα heterodimer; combined with the RXR:RAR activator TTNPB, data not shown): weak repressor
agonist activity on RXRα:RARα heterodimers (in words) (RXRα:RARα heterodimer; compound alone): inactive
Kd (RXRα): 3 nM
melting point: 199 to 205 °C (dec.)
Kd (RXRβ): 17 nM
Structure (SMILES): CC1(C)CCC(C)(C)c2cc(C(=NO)c3ccc(C(=O)O)cc3)c(OCc3ccccc3)cc21 [Compound 117, cis-4-[(3-benzyloxy-5,6,7,8-tetrahydro-5,5,8,8-tetramethyl-2-naphthyl)carbonyl]benzoic acid oxime]
